# Laboratory results: patent US20060167229A1, “Biologically active peptide conjugates” (priority 2002, published 2006)
# Marks after values point to notes of the source that are not given here. Ends that are not written are not given here.
# Tests used:
# Format in all cases: in vivo, BALB/c mice
# NK cell = NK cell activity in mice with ascitic fluid type liver cancer H22; conditions: saline 24.0 ± 8.2
# Description: (§1) Healthy BALB/c mice were randomised into peptide group, rmIFN-γ group, rhIL-2 group, and saline group, 15 mice per group, and prepared into H22 carrying mice model as described in section Method 3. After implantation of the cancer cells, the test substances were administered for 15 days, the mice were killed by cervical dislocation. The spleen was isolated aseptically and manually dispersed in cold D-Hank's solution using an injection needle. The dispersed cell suspension was further sieved through a 100-gauge 150 μm diameter stainless steel sieve. After centrifugation at 200 g for 10 minutes, the supernatant was discarded. The cell pellet was re-suspended in 10 volume of Tris-NH4Cl buffer and then kept standing still for 10 minutes at room temperature. The suspended cells were collected by centrifugation at 150 g for 10 minutes. The cells were washed 2-4 times with cold D-Hank's solution by re-suspending and collecting by centrifugation with condition as described above. The washed cells were then diluted to the desired cell densities by RPMI-1640 culture medium, containing 10% fetal bovine serum.
# Mice spleen cells were prepared to 4×10^6/ml as described in section 4.1 above. Target cells YAC-1 were brought to log phase and adjusted to 1×10^5/ml. Using a 96 wells cell culture plate, 100 μl mouse spleen cells and 100 μl culture medium were added to the control well containing only the spleen cells; 100 μl target cells and 100 μl culture medium were added to the control well containing only target cells; 100 μl mouse spleen cells and 100 μl target cells were added to the NK activity assay well. Three parallel sets of the above were prepared per mouse. After that, the 96 wells cell culture plates were incubated for 4 hrs at 37° C., 5% CO2.
# Samples were centrifuged at 150 g for 10 minutes to collect the cells. The supernatant was discarded and 50 μl/well MTT of 1 mg/ml was added. The reaction-mixture was then shaken for 2 minutes, and incubated at 37° C., 5% CO2 for 4 hours. The supernatant was discarded after centrifugation at 150 g for 10 minutes. 120 μl 40 mM HCl-2-propanol was added and shaken for 3 minutes. An ELISA reader was used to obtain OD570 nm of each well referenced at 630 nm.
# The NK cell activity index of each mouse was obtained by first deriving the average OD of the three parallel wells of each combination, then applying this average OD to the following formula: NK cell activity index=[1−(average OD of spleen and target cell well−average OD of spleen cell only well)÷(average OD of target cell only well)]×100% 5. The Effect of Peptides on the Survival of DBA/2 Mice with Transplanted L1210 Leukemia
# spleen = test: Immunity organ weight test, spleen index; conditions: for weight of spleen (spleen index), X ± SD (%): healthy mice, saline 0.53 ± 0.05; for effect on the weight of the spleen (summary): statistically significant difference from saline in any of the dosage groups 0.5-500 μg/kg/day
# Description: One day after the last test substance administration (day 16), the liver, spleen, and thymus gland were separated and blotted dry with filter paper and weighed. The phagocytosis index α was calculated as below: α=(^3√{square root over ( )}K)(W÷WLS)
# Spleen index (%)=(spleen weight/body weight)×100%
# [1] = tested on: ascitic fluid type liver cancer H22; test: Survival of mice with transplanted ascitic fluid type liver cancer H22; conditions: for Survival days: saline 26.2 ± 6.8
# Description: (§2) Intraperitoneal injection, once per day. […] Treatment of all groups with testing substance lasted for 30 days or until the animal died unless otherwise specified.
# Stock H22 cells were incubated in DMEM/F12 medium supplemented with 10% fetal bovine serum, 37° C./5% CO2 for 72 hrs, then washed 3-4 times with Hank's solution at room temperature. Adjust cell concentration to 1-2×10^9 per litre with Hank's solution. 0.2 ml of the cell suspension was implanted to the abdominal cavity of several BALB/c mice for 6-8 days. The mice were killed by cervical vertebra dislocation. Ascitic fluid of the mice was collected aseptically and the cell concentration adjusted to 1×10^6 per ml with Hank's solution. 0.2 ml of the cell suspension was implanted into the abdominal cavity of healthy mice to generate the H22 carrying mouse model for ascitic fluid type liver cancer. Administration of test substance started as described in section Method 1. Survival data of the mice was recorded. If the animal survived longer than the experiment, the survival days was recorded as the duration of the experiment. Mean survival day was obtained by the Kaplan-meier method in the Survival option of the SPSS software. The survival index was calculated according to the following formula: Survival index=(mean survival days in treatment group−mean survival days of control group)÷mean survival days of control group×100% 4. The Effect of Peptides on the Cellular Immunity of BALB/c Mice with Transplanted Ascitic Fluid Type Liver Cancer H22 4.1 Preparation of Spleen Cell Suspension^[1,4]
# T lymphocyte = T lymphocyte transformation in mice with ascitic fluid type liver cancer H22; conditions: saline 1.25 ± 0.07
# Description: as §1
# Spleen cells of density 1×10^6/ml were placed onto a 96 wells cell culture plate, 100 μl/well, three parallel wells each of the assay sample and control sample per mouse. To the assay wells, 100 μl/well ConA of 100 μg/ml in RPMI-1640 was added, and 100 μl/well plain RPMI-1640 was used for the controls. The cells were incubated for 66 hrs at 37° C., 5% CO2. The cells were then pelleted by centrifugation at 150 g for 10 minutes.
# 50 μl/well MTT of 1 mg/ml in RPMI-1640 was added to the cell pellet and the cells re-suspended by shaking for 2 minutes. The incubation was continued for 4 hours. The supernatant was discarded after centrifugation at 150 g for 10 minutes. 120 μl 40 mM HCl-2-propanol was added to the cell pellet and shaken for 3 minutes. Use an ELISA reader to obtain OD570 nm of each well referenced at 630 nm.
# Each mouse formed three assay wells and three control wells. The Stimulation Index (SI) of each mouse was obtained by first deriving the average OD of the three parallel wells, then dividing the value of the assay wells by the control wells.
# S180 sarcoma = test: Growth of transplanted S180 sarcoma; conditions: for Tumor weight: saline 1.29 ± 0.50
# Description: as §2
# Stock S180 sarcoma cells were incubated in DMEM/F12 medium supplemented with 10% fetal bovine serum, 37° C., 5% CO2 for 72 hrs, then washed 3-4 times with Hank's solution at room temperature. Adjust the cell concentration to 1-2×10^9 per litre with Hank's solution. […] The mice were killed by cervical vertebra dislocation. Vigorously growing and non-disrupted tumor masses were harvested and washed clean with sterile saline. The tissue was dispersed in saline to a homogenous cell suspension, in a ratio of 1 g tissue to 4 ml saline. The sarcoma bearing mice model was prepared with an injection of 0.2 ml cell suspension through the armpit. Administration of test substance treatment started as described in section Method 1.
# 2.2 The Tumor Growth Inhibition Index was Calculated According to the Following Formula: Tumor growth inhibition index=(mean tumor weight of control group−mean tumor weight of treatment group)÷mean tumor weight of control group 3.
# [2] = peptide 500 μg/kg/day i.p. 15 days
# [3] = Table 28, peptide 5 μg/kg/day (so in the source) i.p. 15 days (IFN-γ, IL-2 3×10^5 IU/kg/day)
# [4] = peptide 0.5 μg/kg/day i.p. 15 days (IFN-γ, IL-2 3×10^5 IU/kg/day)
# [5] = dose 0.5 μg/kg i.p. once per day
# [6] = dose 50 μg/kg i.p. once per day
# [7] = dose 500 μg/kg i.p. once per day
substance,measurement,setting,value
FNFVPP [CMS003],NK activity index (%),NK cell; dose 500 μg/kg,37.9 ± 14.5*^^$ %
same,"weight of spleen (spleen index), X ± SD (%)",spleen; [2],0.40 ± 0.04 %
same,effect on the weight of the spleen (summary),spleen,decrease
KAVGHLDDLPGAL [CMS008],Survival index (%),[1]; dose 5 μg/kg i.p. once per day,67.8%
same,Survival days,[1]; dose 5 μg/kg i.p. once per day,50.7 ± 20.9*^& days
same,"weight of spleen (spleen index), X ± SD (%)",spleen; [3],0.39 ± 0.08 %
same,effect on the weight of the spleen (summary),spleen,decrease
LRVAPQQHPTL [CMS009],"weight of spleen (spleen index), X ± SD (%)",spleen; [2],0.41 ± 0.03 %
same,effect on the weight of the spleen (summary),spleen,decrease
PTTKTYFPHF [CMS001],"weight of spleen (spleen index), X ± SD (%)",spleen; [4],0.40 ± 0.05 %
same,"weight of spleen (spleen index), X ± SD (%)",spleen; [2],0.43 ± 0.07 %
same,effect on the weight of the spleen (summary),spleen,decrease
Phe Gln Gln Gln (FQQQ; printed: Phe Gln Gln Gln) [CMS032],NK activity index (%),NK cell; dose 5 μg/kg,52.6 ± 12.5*^^$& %
same,NK activity index (%),NK cell; dose 50 μg/kg,41.0 ± 18.7*^^$& %
same,Survival index (%),[1]; [5],63.3%
same,Survival days,[1]; [5],42.8 ± 12.2*^^&$ days
Phe Val Asn Asp (FVND; listed as Sus scrofa) [CMS035],Stimulation index,T lymphocyte; dose 0.5 μg/kg,1.40 ± 0.13*^$
same,Stimulation index,T lymphocyte; dose 5 μg/kg,1.46 ± 0.16*^$
same,Tumor inhibition index (%),S180 sarcoma; dose 5 μg/kg i.p. once per day,44.6%
same,Tumor weight,S180 sarcoma; dose 5 μg/kg i.p. once per day,0.71 ± 0.37 g
Pro Gln Asn Phe (PQNF; printed: Pro Gln Asn Phe) [CMS034],Stimulation index,T lymphocyte; dose 0.5 μg/kg,1.37 ± 0.10*^$
same,Tumor inhibition index (%),S180 sarcoma; [5],35.9%
same,Tumor weight,S180 sarcoma; [5],0.83 ± 0.48 g
same,NK activity index (%),NK cell; dose 50 μg/kg,57.3 ± 17.9*^^$& %
Pro Ser Ile Vat Gly Arg Pro Arg His Gln Gly Val Met (PSIVGRPRHQGVM; listed as Sus scrofa) [CMS015],"weight of spleen (spleen index), X ± SD (%)","spleen; Table 30, peptide 5 μg/kg/day i.p. 15 days",0.38 ± 0.15 %
same,"weight of spleen (spleen index), X ± SD (%)",spleen; [2],0.36 ± 0.07 %
same,effect on the weight of the spleen (summary),spleen,decrease
RVAPQQHPTL [CMS011],Survival index (%),[1]; dose 5 μg/kg i.p. once per day,60.2%
same,Survival days,[1]; dose 5 μg/kg i.p. once per day,36.4 ± 22.2*^& days
same,"weight of spleen (spleen index), X ± SD (%)",spleen; [2],0.41 ± 0.04 %
same,effect on the weight of the spleen (summary),spleen,decrease
Tyr Ser Leu (YSL; listed as Sus scrofa) [CMS024],Stimulation index,T lymphocyte; dose 0.5 μg/kg,1.46 ± 0.19*^$
same,Stimulation index,T lymphocyte; dose 5 μg/kg,1.45 ± 0.21*^$
same,NK activity index (%),NK cell; dose 0.5 μg/kg,39.3 ± 18.7*^$ %
same,NK activity index (%),NK cell; dose 5 μg/kg,34.9 ± 12.1*^^$ %
same,NK activity index (%),NK cell; dose 50 μg/kg,43.6 ± 13.9*^^$& %
same,postmortem examination of the mice surviving longer than 90 days,[1]; 0.5 μg/kg/day,did not show sign of tumor establishment
same,mice that could survive longer than 90 days,"[1]; 0.5 μg/kg/day, n=6, two months after the experiment ended",more than 30%
same,Survival index (%),[1]; [5],76.9%
same,Survival days,[1]; [5],46.4 ± 14.8*^^&$ days
same,Survival index (%),[1]; dose 5 μg/kg i.p. once per day,54.8%
same,Survival days,[1]; dose 5 μg/kg i.p. once per day,40.6 ± 14.6*^&$ days
same,Survival index (%),[1]; [6],38.4%
same,Survival days,[1]; [6],36.3 ± 12.7*^&$ days
same,"weight of spleen (spleen index), X ± SD (%)",spleen; [2],0.34 ± 0.05 %
same,effect on the weight of the spleen (summary),spleen,decrease
VAPEEHPTLLTEAPLNPK [CMS010],Stimulation index,T lymphocyte; dose 500 μg/kg,1.45 ± 0.21*^$
same,Tumor inhibition index (%),S180 sarcoma; [7],48.4%
same,Tumor weight,S180 sarcoma; [7],0.67 ± 0.35 g
same,"weight of spleen (spleen index), X ± SD (%)",spleen; [3],0.38 ± 0.05 %
same,effect on the weight of the spleen (summary),spleen,decrease
VGMGQKDSY,Stimulation index,T lymphocyte; dose 0.5 μg/kg,1.50 ± 0.19*^$
same,"weight of spleen (spleen index), X ± SD (%)",spleen; [2],0.63 ± 0.08 %
same,effect on the weight of the spleen (summary),spleen,increase
VGMGQKDSYV [CMS020],"weight of spleen (spleen index), X ± SD (%)",spleen; [4],0.68 ± 0.09*^@^ %
same,effect on the weight of the spleen (summary),spleen,increase
